Measured values reported in US8999960B2, “Oxidized thiophospholipid compounds and uses thereof” (Vascular Biogenics Ltd., priority 2008, dated 2015).
Where “and” joins values, the source holds several entries; their conditions need not be identical. Equal entries are not always repeated.

Columns and labels:
[1] = system: phosphotyrosine (p-Tyr) in thioglycollate stimulated mouse macrophages; assay: Tyrosine phosphorylation assay (Western blot, anti-phosphotyrosine antibody); format: cell-based; details: 20 μg/ml, 10 minutes, Western blot (FIG. 1)
Protocol: Thioglycollate stimulated mouse macrophages were treated for 10 minutes with 20 μg/ml of the tested compound in phosphate buffered saline (PBS) with 1% ethanol. Treatment with either 20 μg/ml of phosphatidylcholine or solvent (PBS with 1% ethanol) was used as a negative control. Treatment with 20 μg/ml CI-201 (1-hexadecyl-2-(4′-carboxy)butyl-sn-glycero-3-phosphothiocholine) was used as a positive control.
Proteins with phosphorylated tyrosine were then observed by Western blot, using a monoclonal anti-phosphotyrosine antibody. Western blotting for ERK1/2 was performed as a control for protein loading.

[2] = system: Thioglycollate-elicited mouse peritoneal macrophages; assay: In vitro toxicity assay (crystal violet staining, cell numbers); format: cell-based; details: for Macrophage survival rate: 24 hours incubation, normalized to vehicle, mean ± SD, one of three experiments; for LD50: mouse peritoneal macrophages, 24 hours
Protocol: Thioglycollate-elicited mouse peritoneal macrophages were washed, counted and seeded (5×10^5 cells per well in 24-well plates) in triplicate wells in medium containing RPMI-1640, L-glutamine, 10% fetal calf serum (FCS) and antibiotics (penicillin/streptomycin). After a recovery period of 24 hours, the tested compound (or controls) was added to the cell medium at doses of 2, 10, 20, 50, 100 or 150 μg/ml, keeping the added volume equal in all treatments by complementing the volume with solvent.
Following addition of the compounds, the cells were incubated for an additional 24 hours, after which the cells were washed, fixed with a solution of 10% methanol/10% acetic acid and stained with crystal violet (0.4% in 20% ethanol). Cell numbers were measured by determining optical density at 595 nm. Cells incubated with vehicle (PBS with 1% ethanol) were used as a control, to which cell numbers in treated samples were normalized. Each experiment was performed three times.

[3] = system: IL12/23p40 production by peptidoglycan-activated BMDCs; assay: In vitro IL12/23p40 assay (ELISA); format: cell-based, mouse; details: 1 to 20 μg/ml added for 1 hour, then 24 hours with 10 μg/ml peptidoglycan (FIG. 2)
Protocol: Bone marrow derived cells (BMDCs) were obtained from the femur and tibia of female C57BL mice. Bone-marrow was flushed out femur and tibia with cold RPMI-1640. A cell suspension was prepared, and erythrocytes were removed using red blood cell (RBC) lysis buffer. […] Cells were then washed, resuspended in the same buffer, and depleted from B and T cells on a Midi-Macs separation unit through a LD or LS column (Miltenyi Biotech). The cells were prepared freshly for each experiment.
The depleted bone marrow cells were counted, washed and seeded at a concentration of 10^6 cells/ml in medium containing RPMI-1640, L-glutamine, β-mercaptoethanol, 10% fetal calf serum (FCS), antibiotics (penicillin/streptomycin) and 20 ng/ml of mouse GM-CSF (granulocyte-macrophage colony-stimulating factor). Medium was replaced every other day. On days 5-6 post culturing, cells were collected, counted and seeded at a concentration of 10^6 cells/ml in the above medium. CI-211 was then added for 1 hour. The cells were activated for IL12/23p40 production by incubation for 24 hours with 10 μg/ml peptidoglycan (PGN). Cytokine production from the supernatant was measured by ELISA. Activated cells without CI-211 were used as the control.

[4] = system: Thioglycollate-elicited mouse peritoneal macrophages; assay: In vitro toxicity assay (crystal violet staining, cell numbers); format: cell-based; details: 1, 2.5, 5, 10 or 20 μg/ml

Row | Compound | tyrosine phosphorylation levels [1] | Macrophage survival rate ([2]; 2 μg/ml) | Macrophage survival rate ([2]; 10 μg/ml) | LD50 [2] | IL12/23p40 secretion [3] | toxicity at the concentrations used in the IL12/23p40 assay [4] | Macrophage survival rate ([2]; 20 μg/ml) | Macrophage survival rate ([2]; 50 μg/ml)
1 | 1-hexadecyl-2-(4-carboxy)butyl-sn-glycero-3-thiophosphorylcholine [CI-211] | reduced | 124.7 ± 11.4% and 113.2 ± 7% and 90.4 ± 22.4% | 111.6 ± 28.8% and 118.4 ± 4.2% and 127.9 ± 11.5% | above 100 μg/ml and > 167 μM | decreased | non-toxic |  | 
2 | CCCCCCCCCCCCCCCCOC[C@H](COP(=O)([O-])OCC[N+](C)(C)C)OCCCCC(=O)O [CI-201, 1-hexadecyl 2 (4 carboxy)butyl-sn-glycero-3-phosphocholine, reference compound] | reduced |  |  |  |  |  |  | 
3 | CCCCCCCCCCCCCCCCOCC(COP(O)(=S)OCCN)OCCCCC(=O)O (stereo not drawn) [CI-212, 1-hexadecyl-2-(4-carboxy)butyl-sn-glycero-3-O-thiophosphorylethanolamine] | reduced | 98.7 ± 10.3% and 77.5 ± 5.5% and 80.8 ± 31% |  | above 50 μg/ml and > 90 μM |  |  | 90.6 ± 21.4% and 75.6 ± 9.5% and 97.5 ± 36.4% | 71.4 ± 11.4% and 55.1 ± 18.9% and 97.1 ± 48.1%
